In patent US10517842B2, “Methods of modulating miRNA levels and compositions for use in the same” (Los Angeles Biomedical Research Institute at Harbor-UCLA …, priority 2017, dated 2019):

Columns and labels:
Type in all cases: cell-based, human
[1] = test system: miR-200c; test: Quantitative RT-PCR (TaqMan miRNA assay), cellular and secreted miRNA in LSMC; settings: Tranilast 200 μM, 48 hours, P<0.05
Procedure: (§1) Total RNA was extracted from LSMC using RNAzol (GeneCopoeia, Rockville, Md.) and their quantity and quality was determined (ND-1000 Spectrophotometer, NanoDrop Technologies, Wilmington, Del.) as previously described (Chuang & Khorram, “miR-200c Regulates IL8 Expression by Targeting IKBKB: A Potential Mediator of Inflammation in Leiomyoma Pathogenesis,” PloS one (2014) 9:e95370). For medium miRNA extraction, 5 pg of synthetic miR-1 from Caenorhabditis elegans (cel-miR-1) was added as a spike-in control for purification efficiency. Subsequently, 2 μg or 10 ng (for miRNA) was reverse transcribed using random primers for CCND1, CDK2, COL1A1, COL3A1, TGF-β3, DNMT1 and EZH2 or specific primers for miR-29c and miR-200c according to the manufacturer's guidelines (Applied Biosystems, Carlsbad, Calif.). Quantitative RT-PCR was carried out using SYBR gene expression master mix or TaqMan miRNA expression assays (Applied Biosystems). Reactions were incubated for 10 min at 95° C. followed by 40 cycles for 15 seconds at 95° C. and 1 min at 60° C. The level of mRNAs and expression of cellular and secreted miRNA was determined using the Invitrogen StepOne System with 18S, RNU6B and cel-miR-1 used for normalization respectively. All reactions were run in triplicate and relative expression was analyzed with the comparative cycle threshold method (2^−ΔΔCT) according to the manufacturer (Applied Biosystems). Values were expressed as fold change compared to the control group.

[2] = test system: miR-29c; test: as above; settings: Tranilast 200 μM, 48 hours, P<0.05
Procedure: as §1

[3] = test system: TGF-β3; test: Immunoblotting, protein expression in LSMC; settings: Tranilast 200 μM, 48 h, Western blot, P<0.05
Procedure: (§2) Total protein isolated from LSMC treated with Tranilast (200 μM) at sub-confluence for 48 hrs and from tissues was subjected to immunoblotting as previously described (Chuang et al., “miR-29c induction contributes to downregulation of vascular extracellular matrix proteins by glucocorticoids,” American journal of physiology Cell physiology (2015) 309:C117-25). Specific antibodies generated against CCND1, COL3A1, TGF-β3 (Proteintech Group, Inc., Chicago, Ill.), CDK2, DNMT1 (Santa Cruz Biotechnology, Dallas, Tex.), COL1 (Fitzgerald Industries Intl., Acton, Mass.) and EZH2 (Cell Signaling Technology, Danvers, Mass.) were used to detect specific protein expression. The membranes were also stripped and probed with GAPDH antibody (Proteintech Group, Inc.) serving as loading control.

[4] = test system: DNMT1; test: Immunoblotting, protein expression in LSMC; settings: Tranilast 200 μM, 48 h, Western blot, P<0.05
Procedure: as §2

[5] = test system: COL3A1; test: Immunoblotting, protein expression in LSMC; settings: Tranilast 200 μM, 48 h, Western blot, P<0.05
Procedure: as §2

[6] = test system: CDK2; test: Immunoblotting, protein expression in LSMC; settings: Tranilast 200 μM, 48 h, Western blot, P<0.05
Procedure: as §2

[7] = test system: CCND1; test: Immunoblotting, protein expression in LSMC; settings: Tranilast 200 μM, 48 h, Western blot, P<0.05
Procedure: as §2

[8] = test system: COL1; test: Immunoblotting, protein expression in LSMC; settings: Tranilast 200 μM, 48 h, Western blot, P<0.05
Procedure: as §2

[9] = test system: EZH2; test: Immunoblotting, protein expression in LSMC; settings: Tranilast 200 μM, 48 h, Western blot, P<0.05
Procedure: as §2

[10] = test system: leiomyoma smooth muscle cells (LSMC); test: Cell proliferation assay (MTT); settings: Tranilast 100 to 400 μM, 48 hrs, dose-dependent, p<0.05
Text: Leiomyomas and matched myometrium (N=12) were collected from patients scheduled to undergo hysterectomy at Harbor-UCLA Medical Center with prior approval from Institutional Review Board (#036247). The tissues were either snap frozen and stored in liquid nitrogen for further analysis, or used for isolation of LSMC as previously described (Chuang et al., “miR-200c is aberrantly expressed in leiomyomas in an ethnic-dependent manner and targets ZEBs, VEGFA, TIMP2, and FBLN5,” Endocrine-related cancer (2012)19:541-56; Chuang et al., “miR-93/106b and their host gene, MCM7, are differentially expressed in leiomyomas and functionally target F3 and IL-8. Molecular endocrinology,” (2012) 26:1028-42). Briefly, LSMC were cultured in DMEM supplemented with 10% fetal bovine serum until reaching confluence with a change of media every 2-3 days. […]
LSMC were seeded at 1000 cells/well in 96-well plates and cultured for 48 hrs. […] The rate of cell proliferation was determined using the MTT assay and cells were photographed as previously described (Chuang & Khorram, “Mechanisms underlying aberrant expression of miR-29c in uterine leiomyoma,” Fertility and sterility (2016)105:236-45.e1; Chuang et al., “The Regulatory Function of miR-200c on Inflammatory and Cell-Cycle Associated Genes in SK-LMS-1, A Leiomyosarcoma Cell Line,” Reproductive sciences (2015) 22:563-71). […]

COc1ccc(C=CC(=O)Nc2ccccc2C(=O)O)cc1OC [Tranilast, 2-[[3-(3,4-dimethoxyphenyl)-1-oxo-2-propenyl]amino]benzoic acid]
expression of secreted (medium) miR-200c ([1]; LSMC medium): significantly increased | expression of cellular miR-200c ([1]; LSMC): significantly increased | expression of secreted (medium) miR-29c ([2]; LSMC medium): significantly increased | expression of cellular miR-29c ([2]; LSMC): significantly increased | TGF-β3 expression, protein level [3]: significantly inhibited | DNMT1 expression, protein level [4]: significantly inhibited | COL3A1 expression, protein level [5]: significantly inhibited | CDK2 expression, protein level [6]: significantly inhibited | CCND1 expression, protein level [7]: significantly inhibited | COL1 expression, protein level [8]: significantly inhibited | EZH2 expression, protein level [9]: significantly inhibited | rate of LSMC cell proliferation [10]: significantly inhibited
